Experimental findings from ChEMBL document CHEMBL1759836, “Microwave assisted one-pot synthesis of highly potent novel isoniazid analogues” (Bioorg Med Chem Lett, 2011) are described below.

In brackets after ≈: the same amount, converted by molar mass. Bounds are passed on as bounds.

Data set [1] has as its system Mycobacterium tuberculosis. Briefly: Antimicrobial activity against Mycobacterium tuberculosis H37Rv by agar dilution method. It counts as functional.
The nature of data set [2]: Cytotoxicity against african green monkey Vero cells after 72 hrs by MTT assay. It counts as cell-based. As to conditions: chlorocebus sabaeus.
The test system of data set [3] is Mycobacterium tuberculosis. Put plainly: Antimicrobial activity against multidrug-resisntat Mycobacterium tuberculosis by agar dilution method. It counts as functional. Background: Agar dilution tests growth on a series of plates holding different concentrations.
The nature of data set [4]: Selectivity index, ratio of CC50 for african green monkey Vero cells to MIC for Mycobacterium tuberculosis H37Rv. It counts as functional.

For orientation: MIC means the smallest concentration in the dilution series that meets the test's criterion for growth inhibition. On to `CC1(C)CC(=O)C2=C(C1)N(NC(=O)c1ccncc1)C1=C(C(=O)CC(C)(C)C1)C2c1ccccc1`, for which it took 6.66 µM (≈ 3.13 µg/mL) to inhibit growth in data set [1] (MIC).

In turn, `Cc1ccccc1C1C2=C(CC(C)(C)CC2=O)N(NC(=O)c2ccncc2)C2=C1C(=O)CC(C)(C)C2` gave an MIC in data set [1] of 3.22 µM (≈ 1.56 µg/mL).

As for `Cc1cccc(C2C3=C(CC(C)(C)CC3=O)N(NC(=O)c3ccncc3)C3=C2C(=O)CC(C)(C)C3)c1`, in data set [1], inhibition of growth (MIC) required 6.44 µM (≈ 3.11 µg/mL).

On to `Cc1ccc(C2C3=C(CC(C)(C)CC3=O)N(NC(=O)c3ccncc3)C3=C2C(=O)CC(C)(C)C3)cc1`, for which it took 6.44 µM (≈ 3.11 µg/mL) to inhibit growth in data set [1] (MIC).

Regarding `CC1(C)CC(=O)C2=C(C1)N(NC(=O)c1ccncc1)C1=C(C(=O)CC(C)(C)C1)C2c1ccccc1O`, the MIC in data set [1] was above 12.9 µM.

`CC1(C)CC(=O)C2=C(C1)N(NC(=O)c1ccncc1)C1=C(C(=O)CC(C)(C)C1)C2c1cccc(O)c1` came in with an MIC in data set [1] above 12.9 µM.

In the case of `CC1(C)CC(=O)C2=C(C1)N(NC(=O)c1ccncc1)C1=C(C(=O)CC(C)(C)C1)C2c1ccc(O)cc1`, the minimum inhibitory concentration (MIC) in data set [1] worked out at 12.9 µM (≈ 6.25 µg/mL).

Regarding `COc1ccccc1C1C2=C(CC(C)(C)CC2=O)N(NC(=O)c2ccncc2)C2=C1C(=O)CC(C)(C)C2`, inhibition of growth in data set [1] (MIC) required 12.5 µM (≈ 6.25 µg/mL).

In data set [1], `COc1ccc(C2C3=C(CC(C)(C)CC3=O)N(NC(=O)c3ccncc3)C3=C2C(=O)CC(C)(C)C3)cc1` registered an MIC of 12.5 µM (≈ 6.25 µg/mL).

`CN(C)c1ccc(C2C3=C(CC(C)(C)CC3=O)N(NC(=O)c3ccncc3)C3=C2C(=O)CC(C)(C)C3)cc1` gave a minimum inhibitory concentration (MIC) in data set [1] of 6.1 µM (≈ 3.13 µg/mL).

The compound `CC(C)c1ccc(C2C3=C(CC(C)(C)CC3=O)N(NC(=O)c3ccncc3)C3=C2C(=O)CC(C)(C)C3)cc1` returned an MIC in data set [1] of 1.52 µM (≈ 0.778 µg/mL).

What is called CC50 is the concentration giving 50% cytotoxicity. Consider `CC1(C)CC(=O)C2=C(C1)N(NC(=O)c1ccncc1)C1=C(C(=O)CC(C)(C)C1)C2c1ccccc1OCc1ccccc1`, for which the CC50 at 72 h in data set [2] was above 109 µM. The MIC is 0.69 µM (≈ 0.397 µg/mL) in data set [3] and below 0.17 µM in data set [1].

In data set [2], `CC1(C)CC(=O)C2=C(C1)N(NC(=O)c1ccncc1)C1=C(C(=O)CC(C)(C)C1)C2c1cccc(OCc2ccccc2)c1` returned a CC50 at 72 h above 109 µM. In addition, the MIC amounted to 1.35 µM (≈ 0.777 µg/mL) in data set [3] and 0.17 µM (≈ 0.0979 µg/mL) in data set [1].

Take `CC1(C)CC(=O)C2=C(C1)N(NC(=O)c1ccncc1)C1=C(C(=O)CC(C)(C)C1)C2c1ccc(OCc2ccccc2)cc1`: in data set [2], the CC50 at 72 h is above 109 µM. The minimum inhibitory concentration (MIC) was determined as 0.69 µM (≈ 0.397 µg/mL) in data set [3] and 0.17 µM (≈ 0.0979 µg/mL) in data set [1].

The compound `COc1cc(C2C3=C(CC(C)(C)CC3=O)N(NC(=O)c3ccncc3)C3=C2C(=O)CC(C)(C)C3)ccc1O` had an MIC in data set [1] of 3.02 µM (≈ 1.56 µg/mL).

Take `COc1ccc(C2C3=C(CC(C)(C)CC3=O)N(NC(=O)c3ccncc3)C3=C2C(=O)CC(C)(C)C3)c(OC)c1OC`: the lowest concentration to inhibit growth in data set [1] (MIC) was 11.2 µM (≈ 6.25 µg/mL).

For the compound `CC1(C)CC(=O)C2=C(C1)N(NC(=O)c1ccncc1)C1=C(C(=O)CC(C)(C)C1)C2c1ccccc1C(F)(F)F`, the CC50 at 72 h in data set [2] was above 116 µM. Moreover, the values for the MIC in data set [3] and in data set [1] were 1.45 µM (≈ 0.779 µg/mL) and 0.36 µM (≈ 0.194 µg/mL), respectively.

Take `CC1(C)CC(=O)C2=C(C1)N(NC(=O)c1ccncc1)C1=C(C(=O)CC(C)(C)C1)C2c1cccc(C(F)(F)F)c1`: the CC50 at 72 h in data set [2] is above 116 µM. For the same compound, the MIC in data set [3] was 1.45 µM (≈ 0.779 µg/mL); in data set [1], 0.18 µM (≈ 0.0968 µg/mL). Besides, the “Selectivity Index” value in data set [4] is above 645.

In data set [2], `CC1(C)CC(=O)C2=C(C1)N(NC(=O)c1ccncc1)C1=C(C(=O)CC(C)(C)C1)C2c1ccc(C(F)(F)F)cc1` had a CC50 at 72 h above 116 µM. Besides, the values for the MIC in data set [3] and in data set [1] were 0.74 µM (≈ 0.398 µg/mL) and 0.36 µM (≈ 0.194 µg/mL), respectively.

In the case of `CC1(C)CC(=O)C2=C(C1)N(NC(=O)c1ccncc1)C1=C(C(=O)CC(C)(C)C1)C2c1ccc(Cl)cc1`, the CC50 at 72 h in data set [2] is above 124 µM. For the same compound, the MIC was found to be 1.54 µM (≈ 0.776 µg/mL) in data set [3] and 0.79 µM (≈ 0.398 µg/mL) in data set [1].

`CC1(C)CC(=O)C2=C(C1)N(NC(=O)c1ccncc1)C1=C(C(=O)CC(C)(C)C1)C2c1ccccc1Br`: in data set [2], the CC50 at 72 h is above 114 µM. The MIC in data set [3] is 2.84 µM (≈ 1.56 µg/mL); in data set [1] it was 0.18 µM (≈ 0.0987 µg/mL).

Take `CC1(C)CC(=O)C2=C(C1)N(NC(=O)c1ccncc1)C1=C(C(=O)CC(C)(C)C1)C2c1cccc(Br)c1`: in data set [2], the CC50 at 72 h is below 114 µM. The MIC in data set [3] turned out to be 2.84 µM (≈ 1.56 µg/mL); in data set [1], 0.73 µM (≈ 0.4 µg/mL).

Consider `CC1(C)CC(=O)C2=C(C1)N(NC(=O)c1ccncc1)C1=C(C(=O)CC(C)(C)C1)C2c1ccc(Br)cc1`, for which the CC50 at 72 h in data set [2] is below 114 µM. The MIC in data set [3] was 2.84 µM (≈ 1.56 µg/mL); in data set [1], 0.73 µM (≈ 0.4 µg/mL).

Compound `CC1(C)CC(=O)C2=C(C1)N(NC(=O)c1ccncc1)C1=C(C(=O)CC(C)(C)C1)C2c1ccccc1F` came in with a CC50 at 72 h in data set [2] above 128 µM. In addition, the MIC in data set [3] stood at 1.59 µM (≈ 0.775 µg/mL); in data set [1], 0.41 µM (≈ 0.2 µg/mL).

For `CC1(C)CC(=O)C2=C(C1)N(NC(=O)c1ccncc1)C1=C(C(=O)CC(C)(C)C1)C2c1cccc(F)c1`, the CC50 at 72 h in data set [2] was above 128 µM. For the same compound, the MIC is 0.82 µM (≈ 0.4 µg/mL) in data set [3] and 0.41 µM (≈ 0.2 µg/mL) in data set [1].

For `CC1(C)CC(=O)C2=C(C1)N(NC(=O)c1ccncc1)C1=C(C(=O)CC(C)(C)C1)C2c1ccc(F)cc1`, in data set [2], the CC50 at 72 h was above 128 µM. Besides, the MIC in data set [3] and in data set [1] was 0.2 µM (≈ 0.0975 µg/mL) each time.

On to `CC1(C)CC(=O)C2=C(C1)N(NC(=O)c1ccncc1)C1=C(C(=O)CC(C)(C)C1)C2c1ccccc1[N+](=O)[O-]`, for which, in data set [2], the CC50 at 72 h is below 121 µM. Further, the results for the MIC in data set [3] and in data set [1] were 1.51 µM (≈ 0.777 µg/mL) and 0.19 µM (≈ 0.0978 µg/mL), respectively.

In data set [2], `CC1(C)CC(=O)C2=C(C1)N(NC(=O)c1ccncc1)C1=C(C(=O)CC(C)(C)C1)C2c1cccc([N+](=O)[O-])c1` returned a CC50 at 72 h below 121 µM. The MIC in data set [3] was 3.03 µM (≈ 1.56 µg/mL); in data set [1], 0.77 µM (≈ 0.396 µg/mL).

As for `CC1(C)CC(=O)C2=C(C1)N(NC(=O)c1ccncc1)C1=C(C(=O)CC(C)(C)C1)C2c1ccc([N+](=O)[O-])cc1`, the CC50 at 72 h in data set [2] was below 121 µM. In addition, the MIC turned out to be 3.03 µM (≈ 1.56 µg/mL) in data set [3] and 0.77 µM (≈ 0.396 µg/mL) in data set [1].

In turn, `NNC(=O)c1ccncc1` [ISONIAZID] gave a CC50 at 72 h in data set [2] above 456 µM. Moreover, the MIC in data set [3] was 45.6 µM (≈ 6.25 µg/mL); in data set [1] it was 0.73 µM (≈ 0.1 µg/mL).
